Converted amounts (≈) assume the structure as drawn. Read-outs that look alike come from different tables or passages of the source.
Assays:
[1] = system: Candida albicans ATCC 10231; assay: antifungal activity in vitro, serial dilution in RPMI 1640; assay type: cell-based
Method: (§1) For the determination of antifungal activity in vitro we used method of serial dilution in buffered medium RPMI 1640, pH 7.0, in a 96-wells microplates, according to the standard procedure (National Committee for Clinical Laboratory Standards. Reference method for broth dilution antifungal susceptibility testing of yeast, approved standard, 2nd ed. M27-A2 vol. 22 Wayne, Pa., 2002). The optical density of cells suspension was measured using a microplates reader (Victor^3, Perkin-Elmer) at the wavelength λ=531 nm (A531). On the basis of obtained results the diagrams of relation between A531 values and concentration of examined compound were made.

[2] = system: Candida glabrata DSM 11226; assay: as above; assay type: cell-based
Method: as §1

Candida krusei DSM 6128 = assay: as above; assay type: cell-based
Method: as §1

[3] = system: Candida lusitaniae DSM 70102; assay: as above; assay type: cell-based
Method: as §1

[4] = system: Candida tropicalis KKP 334; assay: as above; assay type: cell-based
Method: as §1

[5] = system: Saccharomyces cerevisiae ATCC 9763; assay: as above; assay type: cell-based; conditions: RPMI 1640, pH 7.0; for Antifungal activity IC50: Saccharomyces cerevisiae ATCC 9763 (first head over MIC and IC50); for Antifungal activity MIC: Saccharomyces cerevisiae ATCC 9763
Method: as §1

Human erythrocytes = assay: hemotoxicity determination (hemolytic activity); assay type: cell-based
Method: The hemotoxicity determination was carried out by the serial dilutions method, according to the procedure described earlier (Slisz, M., et al., E., J Antibiot 57: 669-678 (2004). Human erythrocytes were suspended in the solution of saline to obtain a cell density of suspension 2×10^7/ml. Suitable amounts of diluted solutions of compounds were added to the cell suspension in tubes and were incubated at 37° C. for 30 minutes and then centrifuged (1700×g, 10 min, 4° C.). The concentration of hemoglobin in supernatant after centrifugation of erythrocytes suspension were determined by measuring the absorbance at wavelength λ=540 nm (A540). The maximum level of hemolysis was obtained after incubation of cells suspension in the presence of 0.1% Tritone X-100 (control sample). […] From these graphs, the EH50 values were read which are the interpolated concentrations of compound, for which the A540 value is exactly 50% of the A540 value measured for the control sample.

[6] = system: Aspergillus niger LOCK E201; assay: antifungal activity in vitro, broader spectrum; assay type: cell-based
Method: as §1
(§2) Obtained results are presented below in tables 2A and 2B.

Candida albicans SC 5314 = assay: antifungal activity in vitro, broader spectrum; assay type: cell-based
Method: as §1, §2

Candida arborea KKP 319 = assay: antifungal activity in vitro, broader spectrum; assay type: cell-based
Method: as §1, §2

[7] = system: Candida dubliniensis CBS 7987; assay: antifungal activity in vitro, broader spectrum; assay type: cell-based
Method: as §1, §2

[8] = system: Candida lipolytica KKP 322; assay: antifungal activity in vitro, broader spectrum; assay type: cell-based
Method: as §1, §2

[9] = system: Candida parapsilosis DSM 5784; assay: antifungal activity in vitro, broader spectrum; assay type: cell-based
Method: as §1, §2

[10] = system: Candida pseudotropicalis KKP 324; assay: antifungal activity in vitro, broader spectrum; assay type: cell-based
Method: as §1, §2

[11] = system: Candida quilliermondii DSM 11947; assay: antifungal activity in vitro, broader spectrum; assay type: cell-based
Method: as §1, §2

[12] = system: Candida stellatoidea CBS 1905; assay: antifungal activity in vitro, broader spectrum; assay type: cell-based
Method: as §1, §2

[13] = system: Trichoderma viride LOCK E159; assay: antifungal activity in vitro, broader spectrum; assay type: cell-based
Method: as §1, §2

[14] = system: Candida albicans clinical strain B3; assay: antifungal activity against MDR fungal strains and parents; assay type: cell-based; conditions: C. albicans B3, fluconazole sensitive, parent strain for B4
Method: as §1

[15] = system: Candida albicans clinical strain B4 (CaMdr1p); assay: as above; assay type: cell-based; conditions: C. albicans B4 (CaMdr1p), fluconazole-resistant
Method: as §1

[16] = system: Candida albicans clinical strain F2; assay: as above; assay type: cell-based; conditions: C. albicans F2, fluconazole sensitive, parent strain for F5
Method: as §1

[17] = system: Candida albicans clinical strain F5 (CaMdr1p); assay: as above; assay type: cell-based; conditions: C. albicans F5 (CaMdr1p), fluconazole-resistant
Method: as §1

[18] = system: Candida albicans clinical strain Gu4; assay: as above; assay type: cell-based; conditions: C. albicans Gu4, fluconazole sensitive, parent strain for Gu5
Method: as §1

[19] = system: Candida albicans clinical strain Gu5 (CaCdr1p, CaCdr2p); assay: as above; assay type: cell-based; conditions: C. albicans Gu5 (CaCdr1p, CaCdr2p), fluconazole-resistant
Method: as §1

[20] = system: Candida albicans strain 5674 (CaCdr1p, CaCdr2p); assay: as above; assay type: cell-based; conditions: C. albicans 5674 (CaCdr1p, CaCdr2p)
Method: as §1

[21] = system: Candida albicans strain STY31; assay: as above; assay type: cell-based; conditions: C. albicans STY31, 5674 derivative, deletion of CDR1 and CDR2
Method: as §1

[22] = system: Candida albicans strain STY7 (CaCdr1p); assay: as above; assay type: cell-based; conditions: C. albicans STY7 (CaCdr1p), 5674 derivative, deletion of CDR2
Method: as §1

CCRF-CEM cells = assay: cytotoxic activity against mammalian cells in tissue culture (MTT); assay type: cell-based, human
Method: (§3) All media contained 100 μg/ml of penicillin G and streptomycin. 24-wells microplates containing appropriate medium were inoculated with the cells in amount of 1.2×10^4 cells/well and allowed to stand overnight. Next, tested compounds as solution in dimethylsulfoxide (DMSO) were added in volume of 10 μl (serial 2× dilutions). To control well 10 μl of DMSO was added. Microplates with cell suspensions were incubated for 120 h at temperature 37° C. at atmosphere of 95%/5% CO2. After incubation, to all wells 200 μl of solution of 3-(4,5-dimethyltiazole-2-yl)-2,5-diphenylotetrazole bromide (MTT) in PBS (4 mg/ml) was added and plates were further incubated for 4 h at 37° C. Next, to dissolve crystals of formazane 1 ml of DMSO was added and absorption of solutions was measured at the wavelength λ=540 nm (A540), using a microplates reader (Victor^3, Perkin-Wallac). […] From these graphs IC50 values were read, that is concentration of tested compound in the presence at which A540 value is half of A540 value measured in the control sample.

HepG2 cells = assay: as above; assay type: cell-based, human
Method: as §3

LLC-PK1 cells = assay: as above; assay type: cell-based, pig
Method: as §3

| Compound | Antifungal activity MIC [1] | Antifungal activity MIC [2] | Antifungal activity MIC (Candida krusei DSM 6128) | Antifungal activity MIC [3] | Antifungal activity MIC [4] | Antifungal activity IC50 [5] | Antifungal activity MIC [5] | Hemotoxi EH50 (Human erythrocytes) | Antifungal activity MIC [6] | Antifungal activity MIC (Candida albicans SC 5314) | Antifungal activity MIC (Candida arborea KKP 319) | Antifungal activity MIC [7] | Antifungal activity MIC [8] | Antifungal activity MIC [9] | Antifungal activity MIC [10] | Antifungal activity MIC [11] | Antifungal activity MIC [12] | IC50 (cytotoxic activity) (CCRF-CEM cells) | IC50 (cytotoxic activity) (HepG2 cells) | IC50 (cytotoxic activity) (LLC-PK1 cells) | further results |
| --- | --- | --- | --- | --- | --- | --- | --- | --- | --- | --- | --- | --- | --- | --- | --- | --- | --- | --- | --- | --- | --- |
| C[C@@H]1[C@H](O)[C@@H](C)/C=C/C=C/C=C/C=C/C=C/C=C/C=C/[C@H](O[C@@H]2O[C@H](C)[C@@H](O)[C@H](NC(=S)NCCN3CCCCC3)[C@@H]2O)C[C@@H]2O[C@](O)(C[C@@H](O)C[C@@H](O)[C@H](O)CC[C@@H](O)C[C@@H](O)CC(=O)O[C@H]1C)C[C@H](O)[C@H]2C(=O)O [Compound A22, N-{[3-(2-piperidin-1-yl)ethyl]thioureidyl}amphotericin B] | 1 µg/mL | 4 µg/mL | 2 µg/mL | 1 µg/mL | 1 µg/mL | 0.71 µg/mL | 1 µg/mL | >100 µg/mL | 2 µg/mL | 2 µg/mL | 2 µg/mL | 1 µg/mL | 1 µg/mL | 2 µg/mL | 2 µg/mL | 1 µg/mL | 1 µg/mL | >100 µg/mL | >100 µg/mL | >100 µg/mL | Antifungal activity MIC [13]: 2 µg/mL; Antifungal activity MIC [14]: 0.25 µg/mL; Antifungal activity MIC [15]: 4 µg/mL; Antifungal activity MIC [16]: 4 µg/mL; Antifungal activity MIC [17]: 8 µg/mL; Antifungal activity MIC [18]: 0.25 µg/mL; Antifungal activity MIC [19]: 2 µg/mL; Antifungal activity MIC [20]: 1 µg/mL; Antifungal activity MIC [21]: 2 µg/mL; Antifungal activity MIC [22]: 2 µg/mL |
| C[C@@H]1[C@H](O)[C@@H](C)/C=C/C=C/C=C/C=C/C=C/C=C/C=C/[C@H](O[C@@H]2O[C@H](C)[C@@H](O)[C@H](NC(=S)NCCN(C)C)[C@@H]2O)C[C@@H]2O[C@](O)(C[C@@H](O)C[C@@H](O)[C@H](O)CC[C@@H](O)C[C@@H](O)CC(=O)O[C@H]1C)C[C@H](O)[C@H]2C(=O)O [Compound A28, N-{3-[2-(N,N-dimethylamino)ethyl]thioureidyl}amphotericin B] | 1 µg/mL | 4 µg/mL | 2 µg/mL | 1 µg/mL | 1 µg/mL | 0.50 µg/mL | 1 µg/mL | 81.73 µg/mL | – | – | – | – | – | – | – | – | – | >100 µg/mL | >100 µg/mL | >100 µg/mL | – |
| C[C@@H]1[C@H](O)[C@@H](C)/C=C/C=C/C=C/C=C/C=C/C=C/C=C/[C@H](O[C@@H]2O[C@H](C)[C@@H](O)[C@H](NC(=O)[C@@H](N)Cc3ccccc3)[C@@H]2O)C[C@@H]2O[C@](O)(C[C@@H](O)C[C@@H](O)[C@H](O)CC[C@@H](O)C[C@@H](O)CC(=O)O[C@H]1C)C[C@H](O)[C@H]2C(=O)O [Compound A30, N-L-phenylalanylamphotericin B] | 2 µg/mL | 2 µg/mL | 2 µg/mL | 2 µg/mL | 2 µg/mL | 0.90 µg/mL | 2 µg/mL | >100 µg/mL | 2 µg/mL | 1 µg/mL | 4 µg/mL | 1 µg/mL | 2 µg/mL | 2 µg/mL | 1 µg/mL | 1 µg/mL | 1 µg/mL | >100 µg/mL | >100 µg/mL | >100 µg/mL | Antifungal activity MIC [13]: 4 µg/mL; Antifungal activity MIC [14]: 0.5 µg/mL; Antifungal activity MIC [15]: 2 µg/mL; Antifungal activity MIC [16]: 2 µg/mL; Antifungal activity MIC [17]: 4 µg/mL; Antifungal activity MIC [18]: 1 µg/mL; Antifungal activity MIC [19]: 2 µg/mL; Antifungal activity MIC [20]: 0.5 µg/mL; Antifungal activity MIC [21]: 1 µg/mL; Antifungal activity MIC [22]: 1 µg/mL |
| C[C@@H]1[C@H](O)[C@@H](C)/C=C/C=C/C=C/C=C/C=C/C=C/C=C/[C@H](O[C@@H]2O[C@H](C)[C@@H](O)[C@H](NC(=O)[C@H](N)CC(=O)OC(C)(C)C)[C@@H]2O)C[C@@H]2O[C@](O)(C[C@@H](O)C[C@@H](O)[C@H](O)CC[C@@H](O)C[C@@H](O)CC(=O)O[C@H]1C)C[C@H](O)[C@H]2C(=O)O [Compound A35, N-D-(O^β-tert-butyl)asparagylamphotericin B] | 4 µg/mL | 4 µg/mL | 4 µg/mL | 2 µg/mL | 4 µg/mL | 1.40 µg/mL | 4 µg/mL | – | – | – | – | – | – | – | – | – | – | – | – | – | Hemotoxi EH50 (Human erythrocytes; human erythrocytes, 37° C., 30 minutes): >100 µg/mL; IC50 (cytotoxic activity) (CCRF-CEM cells; CCRF-CEM, 120 h, MTT): >100 µg/mL; IC50 (cytotoxic activity) (HepG2 cells; HepG2, 120 h, MTT): >100 µg/mL; IC50 (cytotoxic activity) (LLC-PK1 cells; LLC-PK1, 120 h, MTT): 70.7 ± 2.3 µg/mL (≈ 64.5 µM) |
